The text below walks through data of patent US8372846B2, “Co-crystals and pharmaceutical compositions comprising the same” (Vertex Pharmaceuticals Incorporated, priority 2006, dated 2013).

This data set in a line: Solubility analyses in simulated intestinal fluid (HPLC of supernatant; solid form by XRPD). In kind it is physicochemical. To be noted: simulated intestinal fluid (pH 6.8); for XRPD (solid form): room temp.; for C, mg/mL Control: room temperature, VX-950 equivalents. As for the experimental part: An aliquot of the sample was placed in a tube and then an aqueous medium was added. At set time points, an aliquot of supernatant was withdrawn, filtered through 0.45 PTFE micron filter (Millex, LCR, Millipore) and processed for high performance liquid chromatography (HPLC) analysis (Agilent 1100; Palo Alto, Calif., USA). The system was equipped with an autosampler set at 25° C. For the sample handling, an aliquot of the sample was diluted with acetonitrile at 1 to 1 by v/v ratio. The samples were run isocratically with the detector set at 270 nm. The column was XTerra® Phenyl column 150 mm×4.6 mm, 3.5 μm Particle Size (P/N 186001144) (Waters, Milford, Mass., USA). The mobile phase was potassium phosphate buffer (10 mM, pH=7.0):methanol at 60:40 (v/v) ratio. The run was done at the flow-rate of 1 mL/min and was completed within 15 min.

With `CCC[C@H](NC(=O)[C@@H]1[C@H]2CCC[C@H]2CN1C(=O)[C@@H](NC(=O)[C@@H](NC(=O)c1cnccn1)C1CCCCC1)C(C)(C)C)C(=O)C(=O)NC1CC1` [VX-950 alone], the “XRPD (solid form)” value runs as follows: (24 hours) “Crystallizes by 24 hour”; (up to 2 hours) “Amorphous (up to 2 hours”. Further, the “C, mg/mL Control” value is recorded as “Not” (24 hour), 0.0183 mg/mL (line with XRPD 'by about 4 hours') and 0.025 mg/mL (line with XRPD 'up to 2 hours').
